# Reference: patent publication US6358885B1, “Substituted phenylheterocyclic herbicides” (Mississippi State University, priority 1992, dated 2002)
# What was measured:
# wild oat [1] = assay: Test B preemergence/postemergence greenhouse plant response rating 0 to 10; assay type: in vivo, Avena fatua; conditions: 0 to 10 scale
# How it was run: (§1)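 Test chemicals were sprayed onto freshly planted seed and, concurrently, onto young plants between the one and four leaf stage. After a twelve- to sixteen-day greenhouse period, each species was visually compared with untreated controls.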
# bedstraw = assay: as above; assay type: in vivo, Galium aparine; conditions: 0 to 10 scale
# How it was run: as §1
# barley = assay: as above; assay type: in vivo, Hordeum vulgare; conditions: 0 to 10 scale
# How it was run: as §1
# sorghum [2] = assay: Test C preemergence/postemergence greenhouse plant response rating 0 to 100; assay type: in vivo, Sorghum bicolor; conditions: POSTEMERGENCE; for Plant response rating, Sorghum: 0 to 100 scale
# How it was run: (§2)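 Compounds in non-phytotoxic solvent went onto sandy loam before emergence (seeded one day earlier) or onto plants at the one-to-four leaf stage. Duck salad was treated via flood water (~2.5 cm, maintained) over silt loam.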
# wheat [3] = assay: as above; assay type: in vivo, Triticum aestivum; conditions: POSTEMERGENCE; for Plant response rating, Wheat: 0 to 100 scale
# How it was run: as §2
# wild oat [4] = assay: as above; assay type: in vivo, Avena fatua; conditions: POSTEMERGENCE; for Plant response rating, Wild oat: 0 to 100 scale
# How it was run: as §2
# cotton = assay: Test B preemergence/postemergence greenhouse plant response rating 0 to 10; assay type: in vivo, Gossypium hirsutum; conditions: 0 to 10 scale
# How it was run: as §1
# downy brome = assay: Test C preemergence/postemergence greenhouse plant response rating 0 to 100; assay type: in vivo, Bromus tectorum; conditions: POSTEMERGENCE; for Plant response rating Downy Brome: 0 to 100 scale
# How it was run: as §2
# blackgrass = assay: Test B preemergence/postemergence greenhouse plant response rating 0 to 10; assay type: in vivo, Alopecurus myosuroides; conditions: 0 to 10 scale
# How it was run: as §1
# barnyardgrass = assay: Test C flood test plant response rating 0 to 100; assay type: in vivo, Echinochloa crus-galli; conditions: for Plant response rating (0 to 100), Barnyardgrass: under POSTEMERGENCE head (flood test species); for Plant response rating, Barnyardgrass: flood test species listed under POSTEMERGENCE, 0 to 100 scale
# How it was run: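 Compounds in non-phytotoxic solvent applied preemergence to sandy loam one day after planting, postemergence at the 1–4 leaf stage, or to ~2.5 cm floodwater over silt loam.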
# sugar beet = assay: Test B preemergence/postemergence greenhouse plant response rating 0 to 10; assay type: in vivo, Beta vulgaris; conditions: 0 to 10 scale
# How it was run: as §1
# wheat [5] = assay: as above; assay type: in vivo, Triticum aestivum; conditions: 0 to 10 scale
# How it was run: as §1
# rape = assay: Test C preemergence/postemergence greenhouse plant response rating 0 to 100; assay type: in vivo, Brassica napus; conditions: POSTEMERGENCE; for Plant response rating, Rape: 0 to 100 scale
# How it was run: as §2
# lambsquarters = assay: Test B preemergence/postemergence greenhouse plant response rating 0 to 10; assay type: in vivo, Chenopodium album; conditions: 0 to 10 scale
# How it was run: as §1
# wild buckwheat = assay: Test C preemergence/postemergence greenhouse plant response rating 0 to 100; assay type: in vivo, Polygonum convolvulus; conditions: POSTEMERGENCE; for Plant response rating, Wild buckwheat: 0 to 100 scale
# How it was run: as §2
# crabgrass = assay: as above; assay type: in vivo, Digitaria sanguinalis; conditions: POSTEMERGENCE; for Plant response rating, Crabgrass: 0 to 100 scale
# How it was run: as §2
# ryegrass = assay: as above; assay type: in vivo, Lolium multiflorum; conditions: POSTEMERGENCE; for Plant response rating Ryegrass: 0 to 100 scale
# How it was run: as §2
# sorghum [6] = assay: Test B preemergence/postemergence greenhouse plant response rating 0 to 10; assay type: in vivo, Sorghum bicolor; conditions: 0 to 10 scale
# How it was run: as §1
structure (smiles),measurement,setting,value
C=CCN1C(=O)COc2cc(F)c(-c3nn4c(c3Br)CCCC4)cc21 [Compound 41],"Plant response rating, Wild oat","wild oat [1]; POSTEMERGENCE, Rate 50 g/ha",3
same,"Plant response rating, Wild oat","wild oat [1]; PREEMERGENCE, Rate 50 g/ha",2
same,"Plant response rating, Wild oat","wild oat [1]; Rate 200 g/ha, POSTEMERGENCE",4
same,"Plant response rating, Bedstraw","bedstraw; POSTEMERGENCE, Rate 50 g/ha",10
same,"Plant response rating, Bedstraw","bedstraw; POSTEMERGENCE, Rate 200 g/ha",10
same,"Plant response rating, Bedstraw","bedstraw; PREEMERGENCE, Rate 50 g/ha",2
same,"Plant response rating, Bedstraw","bedstraw; Rate 200 g/ha, PREEMERGENCE",10
same,"Plant response rating, Barley","barley; POSTEMERGENCE, Rate 50 g/ha",5
same,"Plant response rating, Barley","barley; POSTEMERGENCE, Rate 200 g/ha",5
same,"Plant response rating, Barley","barley; PREEMERGENCE, Rate 50 g/ha",1
same,"Plant response rating, Barley","barley; Rate 200 g/ha, PREEMERGENCE",1
same,"Plant response rating, Sorghum",sorghum [2]; 62 g/ha,40
same,"Plant response rating, Sorghum",sorghum [2]; 125 g/ha,50
same,"Plant response rating (0 to 100), Sorghum",sorghum [2]; Rate 16 g/ha,20
same,"Plant response rating (0 to 100), Sorghum",sorghum [2]; Rate 31 g/ha,30
same,"Plant response rating, Wheat",wheat [3]; 62 g/ha,50
same,"Plant response rating, Wheat",wheat [3]; 125 g/ha,60
same,"Plant response rating (0 to 100), Wheat",wheat [3]; Rate 16 g/ha,40
same,"Plant response rating (0 to 100), Wheat",wheat [3]; Rate 31 g/ha,50
same,"Plant response rating, Wild oat",wild oat [4]; 62 g/ha,40
same,"Plant response rating, Wild oat",wild oat [4]; 125 g/ha,50
same,"Plant response rating (0 to 100), Wild oat",wild oat [4]; Rate 16 g/ha,20
same,"Plant response rating (0 to 100), Wild oat",wild oat [4]; Rate 31 g/ha,30
same,"Plant response rating, Cotton","cotton; POSTEMERGENCE, Rate 50 g/ha",10
same,"Plant response rating, Cotton","cotton; POSTEMERGENCE, Rate 200 g/ha",10
same,"Plant response rating, Cotton","cotton; PREEMERGENCE, Rate 50 g/ha",4
same,"Plant response rating, Cotton","cotton; Rate 200 g/ha, PREEMERGENCE",2
same,Plant response rating Downy Brome,downy brome; 62 g/ha,50
same,Plant response rating Downy Brome,downy brome; 125 g/ha,60
same,"Plant response rating (0 to 100), Downy Brome",downy brome; Rate 16 g/ha,30
same,"Plant response rating (0 to 100), Downy Brome",downy brome; Rate 31 g/ha,40
same,"Plant response rating, Blackgrass","blackgrass; POSTEMERGENCE, Rate 50 g/ha",2
same,"Plant response rating, Blackgrass","blackgrass; POSTEMERGENCE, Rate 200 g/ha",5
same,"Plant response rating, Blackgrass","blackgrass; PREEMERGENCE, Rate 50 g/ha",6
same,"Plant response rating, Blackgrass","blackgrass; Rate 200 g/ha, PREEMERGENCE",7
same,"Plant response rating (0 to 100), Barnyardgrass",barnyardgrass; Rate 16 g/ha,90
same,"Plant response rating (0 to 100), Barnyardgrass",barnyardgrass; Rate 31 g/ha,100
same,"Plant response rating, Barnyardgrass",barnyardgrass; 62 g/ha,100
same,"Plant response rating, Barnyardgrass",barnyardgrass; 125 g/ha,100
same,"Plant response rating, Sugar beet","sugar beet; POSTEMERGENCE, Rate 50 g/ha",10
same,"Plant response rating, Sugar beet","sugar beet; PREEMERGENCE, Rate 50 g/ha",10
same,"Plant response rating, Sugar beet","sugar beet; Rate 200 g/ha, POSTEMERGENCE",10
same,"Plant response rating, Sugar beet","sugar beet; Rate 200 g/ha, PREEMERGENCE",10
same,"Plant response rating, Wheat","wheat [5]; POSTEMERGENCE, Rate 50 g/ha",5
same,"Plant response rating, Wheat","wheat [5]; PREEMERGENCE, Rate 50 g/ha",1
same,"Plant response rating, Wheat","wheat [5]; Rate 200 g/ha, POSTEMERGENCE",5
same,"Plant response rating, Wheat","wheat [5]; Rate 200 g/ha, PREEMERGENCE",3
same,"Plant response rating, Rape",rape; 62 g/ha,100
same,"Plant response rating, Rape",rape; 125 g/ha,100
same,"Plant response rating (0 to 100), Rape",rape; Rate 16 g/ha,95
same,"Plant response rating (0 to 100), Rape",rape; Rate 31 g/ha,100
same,"Plant response rating, Lambsquarter","lambsquarters; POSTEMERGENCE, Rate 50 g/ha",10
same,"Plant response rating, Lambsquarter","lambsquarters; PREEMERGENCE, Rate 50 g/ha",10
same,"Plant response rating, Lambsquarter","lambsquarters; Rate 200 g/ha, POSTEMERGENCE",10
same,"Plant response rating, Lambsquarter","lambsquarters; Rate 200 g/ha, PREEMERGENCE",10
same,"Plant response rating, Wild buckwheat",wild buckwheat; 62 g/ha,100
same,"Plant response rating, Wild buckwheat",wild buckwheat; 125 g/ha,100
same,"Plant response rating (0 to 100), Wild buckwheat",wild buckwheat; Rate 16 g/ha,95
same,"Plant response rating (0 to 100), Wild buckwheat",wild buckwheat; Rate 31 g/ha,100
same,"Plant response rating, Crabgrass",crabgrass; 62 g/ha,20
same,"Plant response rating, Crabgrass",crabgrass; 125 g/ha,30
same,"Plant response rating (0 to 100), Crabgrass",crabgrass; Rate 16 g/ha,10
same,"Plant response rating (0 to 100), Crabgrass",crabgrass; Rate 31 g/ha,10
same,Plant response rating Ryegrass,ryegrass; 62 g/ha,30
same,Plant response rating Ryegrass,ryegrass; 125 g/ha,40
same,"Plant response rating (0 to 100), Ryegrass",ryegrass; Rate 16 g/ha,10
same,"Plant response rating (0 to 100), Ryegrass",ryegrass; Rate 31 g/ha,20
same,"Plant response rating, Sorghum","sorghum [6]; POSTEMERGENCE, Rate 50 g/ha",5
same,"Plant response rating, Sorghum","sorghum [6]; PREEMERGENCE, Rate 50 g/ha",0
same,"Plant response rating, Sorghum","sorghum [6]; Rate 200 g/ha, POSTEMERGENCE",6
same,"Plant response rating, Sorghum","sorghum [6]; Rate 200 g/ha, PREEMERGENCE",1
